Active and inactive are the calls of the source. The calls are words filed in the database; no cut-off is given here.
What was measured:
[1] = target: Cyclin-dependent kinase 2/cyclin E1 (Homo sapiens, UniProt P24941); experiment: Inhibition of CDK2/cyclin E (unknown origin) using peptide substrate in presence of [gamma33P]ATP by image analyser; assay type: protein-complex assay
K562 = experiment: Antiproliferative activity against human K562 cells assessed as cell viability at 10 uM incubated for 72 hrs by resazurin assay; assay type: functional; settings: read-out: Activity
MOLM-13 [2] = experiment: Antiproliferative activity against human MOLM-13 cells assessed as cell viability at 10 uM incubated for 72 hrs by resazurin assay; assay type: functional; settings: read-out: Activity
MV4-11 [3] = experiment: Antiproliferative activity against human MV4-11 cells assessed as cell viability at 10 uM incubated for 72 hrs by resazurin assay; assay type: functional; settings: read-out: Activity
[4] = target: Cyclin-dependent kinase 4/cyclin D1 (Homo sapiens) (UniProt P11802+P24385); experiment: Inhibition of CDK4/cyclin D1 (unknown origin) at 20 uM using peptide substrate in presence of [gamma33P]ATP by image analyser relative to control; assay type: protein-complex assay
[5] = target: Cyclin-dependent kinase 1/cyclin B1 (Homo sapiens, UniProt P06493); experiment: Inhibition of CDK1/cyclin B (unknown origin) using peptide substrate in presence of [gamma33P]ATP by image analyser; assay type: protein-complex assay
Cyclin-dependent kinase 1/cyclin B1, sequence (P06493 whole entry): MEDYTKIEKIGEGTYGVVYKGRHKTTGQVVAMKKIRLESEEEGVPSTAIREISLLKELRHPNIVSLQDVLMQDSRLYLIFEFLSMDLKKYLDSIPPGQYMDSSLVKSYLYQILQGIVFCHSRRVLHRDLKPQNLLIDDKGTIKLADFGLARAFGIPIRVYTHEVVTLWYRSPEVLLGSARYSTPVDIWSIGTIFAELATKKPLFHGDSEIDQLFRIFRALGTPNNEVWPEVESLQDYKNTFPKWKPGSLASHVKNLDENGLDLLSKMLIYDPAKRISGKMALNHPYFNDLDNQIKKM
Cyclin-dependent kinase 1/cyclin B1, sequence (P14635 whole entry, further chain): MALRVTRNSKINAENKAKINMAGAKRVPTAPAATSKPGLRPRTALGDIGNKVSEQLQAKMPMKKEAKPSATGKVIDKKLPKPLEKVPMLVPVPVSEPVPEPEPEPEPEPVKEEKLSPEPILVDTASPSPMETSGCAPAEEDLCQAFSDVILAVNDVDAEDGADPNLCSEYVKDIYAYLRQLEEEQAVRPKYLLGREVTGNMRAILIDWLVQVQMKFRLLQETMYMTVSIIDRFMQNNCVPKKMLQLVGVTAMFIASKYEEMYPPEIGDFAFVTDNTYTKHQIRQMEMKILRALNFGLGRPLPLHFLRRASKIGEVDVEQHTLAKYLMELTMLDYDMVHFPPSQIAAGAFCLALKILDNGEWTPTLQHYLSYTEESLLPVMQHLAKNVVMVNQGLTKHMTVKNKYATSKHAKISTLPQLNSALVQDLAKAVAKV

CDK2/Cyclin A2 = CDK2/Cyclin A2 (Homo sapiens, UniProt P24941); experiment: Inhibition of CDK2/cyclin A2 (unknown origin) using peptide substrate in presence of [gamma33P]ATP by image analyser; assay type: protein-complex assay
[6] = Inhibition of CDK3/cyclin A2 (unknown origin) using peptide substrate in presence of [gamma33P]ATP by image analyser; parameters: species or system Homo sapiens
[7] = target: Cyclin-dependent kinase 4/cyclin D1 (Homo sapiens, UniProt P11802); experiment: Inhibition of CDK4/cyclin D1 (unknown origin) using peptide substrate in presence of [gamma33P]ATP by image analyser; assay type: protein-complex assay
Cyclin-dependent kinase 4/cyclin D1, sequence (P11802 whole entry): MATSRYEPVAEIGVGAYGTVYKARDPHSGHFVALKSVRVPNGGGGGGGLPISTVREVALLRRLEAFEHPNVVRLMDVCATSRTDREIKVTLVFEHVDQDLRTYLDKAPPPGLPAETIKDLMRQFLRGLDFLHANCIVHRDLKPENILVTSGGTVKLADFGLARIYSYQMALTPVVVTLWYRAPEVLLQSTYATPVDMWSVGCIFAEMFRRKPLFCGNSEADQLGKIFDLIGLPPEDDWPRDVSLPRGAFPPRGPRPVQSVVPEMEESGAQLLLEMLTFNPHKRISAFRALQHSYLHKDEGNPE
Cyclin-dependent kinase 4/cyclin D1, sequence (P24385 whole entry, further chain): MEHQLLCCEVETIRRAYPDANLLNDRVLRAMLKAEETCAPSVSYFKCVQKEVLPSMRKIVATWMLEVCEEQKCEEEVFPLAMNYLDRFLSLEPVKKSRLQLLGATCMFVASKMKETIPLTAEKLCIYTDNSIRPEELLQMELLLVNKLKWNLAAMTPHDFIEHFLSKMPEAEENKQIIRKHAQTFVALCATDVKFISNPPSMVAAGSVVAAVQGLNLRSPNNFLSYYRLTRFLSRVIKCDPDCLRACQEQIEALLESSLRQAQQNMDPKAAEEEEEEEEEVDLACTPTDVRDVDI

CDK9/cyclin T1 = CDK9/cyclin T1 (Homo sapiens, UniProt P50750); experiment: Inhibition of CDK9/cyclin T1 (unknown origin) using peptide substrate in presence of [gamma33P]ATP by image analyser; assay type: protein-complex assay
CDK9/cyclin T1, sequence (O60563 whole entry): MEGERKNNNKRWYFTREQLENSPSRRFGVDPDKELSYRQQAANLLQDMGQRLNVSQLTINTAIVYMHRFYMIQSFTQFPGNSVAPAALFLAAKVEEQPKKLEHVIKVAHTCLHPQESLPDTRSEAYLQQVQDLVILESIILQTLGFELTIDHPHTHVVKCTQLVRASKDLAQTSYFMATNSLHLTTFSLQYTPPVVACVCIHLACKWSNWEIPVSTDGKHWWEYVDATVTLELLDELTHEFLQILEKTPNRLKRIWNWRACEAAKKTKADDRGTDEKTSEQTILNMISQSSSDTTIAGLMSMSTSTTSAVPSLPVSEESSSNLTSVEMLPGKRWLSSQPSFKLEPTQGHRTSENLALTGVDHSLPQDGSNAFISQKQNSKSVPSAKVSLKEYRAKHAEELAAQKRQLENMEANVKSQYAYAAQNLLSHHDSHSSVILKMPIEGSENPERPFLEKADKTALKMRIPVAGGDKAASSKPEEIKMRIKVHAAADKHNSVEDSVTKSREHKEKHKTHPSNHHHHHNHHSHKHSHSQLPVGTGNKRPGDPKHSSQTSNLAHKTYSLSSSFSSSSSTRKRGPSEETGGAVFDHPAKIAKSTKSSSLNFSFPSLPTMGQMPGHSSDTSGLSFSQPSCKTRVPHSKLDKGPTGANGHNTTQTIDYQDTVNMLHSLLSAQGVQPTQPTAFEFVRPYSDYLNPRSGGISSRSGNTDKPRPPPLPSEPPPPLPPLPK
CDK9/cyclin T1, sequence (P50750 whole entry): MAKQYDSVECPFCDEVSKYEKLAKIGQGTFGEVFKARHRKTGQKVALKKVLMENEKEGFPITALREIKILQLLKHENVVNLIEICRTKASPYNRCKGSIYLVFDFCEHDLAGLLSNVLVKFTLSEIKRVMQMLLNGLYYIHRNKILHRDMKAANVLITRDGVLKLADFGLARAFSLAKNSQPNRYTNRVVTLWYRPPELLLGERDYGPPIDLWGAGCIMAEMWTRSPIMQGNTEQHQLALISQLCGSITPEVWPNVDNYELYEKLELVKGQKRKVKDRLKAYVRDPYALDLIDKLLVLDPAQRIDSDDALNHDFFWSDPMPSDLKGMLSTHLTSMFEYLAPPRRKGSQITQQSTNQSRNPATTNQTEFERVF

[8] = target: T1, Cyclin-dependent kinase 2 (Homo sapiens, UniProt P24941); experiment: Binding affinity to CDK2 (unknown origin) by isothermal titration calorimetry
[9] = target: T1, Cyclin-dependent kinase 2; experiment: Binding affinity to CDK2 (unknown origin) assessed as change in enthalpy by isothermal titration calorimetry
[10] = target: T1, Cyclin-dependent kinase 2; experiment: Binding affinity to CDK2 (unknown origin) assessed as change in entropy by isothermal titration calorimetry
MOLM-13 [11] = experiment: Antiproliferative activity against human MOLM-13 cells assessed as growth inhibition after 72 hrs by resazurin assay; assay type: functional
MV4-11 [12] = experiment: Antiproliferative activity against human MV4-11 cells assessed as growth inhibition after 72 hrs by resazurin assay; assay type: functional
MV4-11 [13] = experiment: Induction of cell cycle arrest in human MV4-11 cells assessed as accumulation at G1 phase after 24 to 72 hrs by propidium iodide staining based flow cytometry analysis; assay type: functional; settings: dose 6-100 µM, time 24-72 hrs
MV4-11 [14] = experiment: Induction of cell cycle arrest in human MV4-11 cells assessed as accumulation at sub-G1 phase at high dose after 72 hrs by propidium iodide staining based flow cytometry analysis; assay type: functional
MV4-11 [15] = experiment: Induction of cell cycle arrest in human MV4-11 cells assessed as reduction in S phase cells at high dose after 24 to 72 hrs by propidium iodide staining based flow cytometry analysis; assay type: functional; settings: time 24-72 hrs
[16] = target: T1, Cyclin-dependent kinase 2
Description: Binding affinity to CDK2 (unknown origin) assessed as gibbs free energy change by isothermal titration calorimetry

Compound | IC50 [1] | viability at 10 µM (K562) | viability at 10 µM (MOLM-13 [2]) | viability at 10 µM (MV4-11 [3]) | also measured
O=c1[nH]cc(C2CCCCC2)c2ncc(I)n12 | 14.2 µM | 100% | 70.7% | 78.5% | 
O=c1[nH]cc(C2=CCCC2)c2nccn12 | 4.9 µM | 106% | 93.4% | 88.2% | 
CCOC(=O)Cn1cc(C2CCCCC2)c2nccn2c1=O | > 50 µM | 110% | 90.3% | 93.3% | 
NS(=O)(=O)c1ccc(Nc2nc(OCC3CCCCC3)c3nc[nH]c3n2)cc1 |  | 103% | 66% | 32.1% | 
O=c1[nH]cc(C2CCCCC2)c2nccn12 | 0.66 µM | 103% | 84.8% | 82.2% | inhibition [4]: 46%; IC50 [5]: 4.3 µM; IC50 (CDK2/Cyclin A2): 0.68 µM; IC50 [6]: 2.72 µM; IC50 [7]: 14.3 µM; IC50 (CDK9/cyclin T1): 10 µM; Kd [8]: 4.1 µM; deltaH [9]: -11.4 kcal/mol; -TdeltaS [10]: 3.92 kcal/mol; GI50 (MOLM-13 [11]): 50 µM; GI50 (MV4-11 [12]): 50 µM; Activity (MV4-11 [13]): Dose-dependent effect; Activity (MV4-11 [14]): Active; Activity (MV4-11 [15]): Active; deltaG [16]: -7.48 kcal/mol
O=c1[nH]cc(C2CCCCC2)c2nc(I)cn12 | 6.5 µM | 101% | 33.8% | 40.1% | 
Cn1cc(C2CCCCC2)c2nccn2c1=O | 4.7 µM | 105% | 88.3% | 89.3% | 
O=C(O)Cn1cc(C2CCCCC2)c2nccn2c1=O | > 50 µM | 108% | 90.3% | 94.7% | 
O=c1[nH]cc(C2CCCC2)c2nccn12 | 4 µM | 105% | 90.5% | 90.2% | 
O=c1[nH]cc(-c2ccccc2)c2ncc(I)n12 | > 25 µM | 109% | 77.4% | 72.6% | 
O=c1[nH]cc(-c2ccccc2)c2nc(I)c(I)n12 | > 12.5 µM | 113% | 56.7% | 63.1% | 
O=c1[nH]cc(-c2ccccc2)c2nc(I)cn12 | > 25 µM | 110% | 63.3% | 62.6% | 
O=c1[nH]cc(C2=CCCCC2)c2nccn12 | 1.2 µM | 101% | 88.7% | 80.6% | 
O=c1[nH]cc(-c2ccccc2)c2nc(-c3ccccc3)cn12 | > 50 µM | 105% | 83.5% | 84.1% | 
O=c1[nH]cc(C2CCCCC2)c2nc(I)c(I)n12 | 4.6 µM | 99.5% | 53.9% | 57% | 

From ChEMBL document CHEMBL4732259, “Imidazo[1,2-c]pyrimidin-5(6H)-one inhibitors of CDK2: Synthesis, kinase inhibition and co-crystal structure” (Eur J Med Chem, 2021)
